The values below come from US5834445A, “Process for preparing decolorized carotenoid-cyclodextrin complexes” (priority 1995, dated 1998).

Entries after “also recorded” stand apart in the source; their conditions may differ.

Data set [1] in a line: Color and texture of prepared compositions and creams. Type of data set: physicochemical.
Procedure: 50 milligrams of β carotene were added to 50 milligrams of vitamin E (as DL-alpha tocopherol acid succinate). To this mixture were added 50 milligrams of β cyclodextrin and 50 milligrams of gelatin derived from bovine skin (bloom 225, type III). […] Next, 1 milliliter of D20 and 1 milliliter of glycerine were added, in that order.
The mixture #1 was then added to 1 milliter of a commercial skin cream, LUBRIDERM, which contains water, mineral oil, petrolatum, sorbitol, lanolin, lanolin alcohol, triethanolamine, cetyl alcohol, butylparaben, methylparaben, propylparaben, and sodium chloride, in order of descending amount.
50 milligrams of β carotene were mixed thoroughly with 50 milligrams of β cyclodextrin. One milliliter of distilled H2 O (d-H2 O) was added to the mixture of carotene and cyclodextrin. […] Fifty milligrams of Vitamin E succinate (crystalline) were then added. […] Next, 1 milliliter of glycerine was added, followed by 150 milligrams of gelatin. […] The same skin cream base was added to composition 2 as in example 1, in the same amount.
Glycerine (1 milliliter) and/or gelatin (50 mg) were added to the mixture, followed by 1 milliliter of LUBRIDERM brand skin cream.
Data set [2] in a line: Color matching with COLOR-AID swatchbook. The class given is physicochemical. Particulars: 1% β carotene, ⊕ darker, ⊖ paler than swatch.
Procedure: Creams containing cyclodextrin-complexed β carotene and uncomplexed β carotene were prepared by adding the respective carotene preparation to one or more of several different commercially available creams. The commercial creams used include LUBRIDERM, NOXZEMA, POND'S hand cream, POND'S Cold Cream, and NIVEA moisturizing cream. The amount of complex needed to achieve a β carotene content of 1% by weight was calculated using the measurement of percent loading for the particular complex, and this amount was added to the cream as purchased. Control samples contained 1% uncomplexed β carotene by weight of the cream. […] Since the amount of β carotene by weight is the same in all the cream samples, including those to which β carotene was added in pure form and those to which the β carotene was added in the form of β carotene/cyclodextrin complex, differences in color intensity and hue are not ascribable to a simple dilution effect.
The color differences among complexed and uncomplexed β carotene and among creams containing complexed vs. uncomplexed β carotene are here characterized according to the COLOR-AID swatchbook.
In the present case, color matching was performed under fluorescent lighting of the full-spectrum type.
A further data set relates to oral carcinoma cell. To be noted: in at least some cases; cited from earlier work.
Data set [3] is described as follows: Absorbance loss at 450 nm of β-carotene/alpha-cyclodextrin with cysteine after 21 days. The class given is physicochemical. Particulars: After 21 days at ambient conditions; UV-Vis.
Procedure: As further described below, various amounts of cysteine were used. Spectroscopic measurements were then made of Samples C, D, E, F (Table VIII), and of a sample consisting of uncomplexed beta-carotene, which was used as a control group.
The results were measured as percent of absorbance loss at 450 nm. The percent of absorbance loss measures the intensity of absorbance. In turn, intensity of absorbance is directly correlated to oxidation and decomposition of beta-carotene.
The nature of data set [4]: Color matching with COLORCURVE swatches. Type of data set: physicochemical. Particulars: cream A, same set of samples as Table I.
Source text: In the COLORCURVE system, colors are scaled on a 3-dimensional scheme. One dimension, which for convenience here will be termed the vertical dimension, is value, defined more or less according to Munsell (op cit). The two dimensions of each plane are hue and intensity or saturation. The "hues" of the COLORCURVE system are the four primary colors of visible light: red, yellow, green and blue. Like the COLOR-AID system, the COLORCURVE system provides coded swatches for color matching. Each coded color in the COLORCURVE system is defined by light reflectance values, tristimulus values, and L*a*b* values, these being colorimetric parameters known in the art.
In the COLORCURVE code, the first number specifies the level, that is, the value of the equivalent gray tone; the level numbers increase from darker values to lighter values. For example, Level 55 colors are paler than Level 50 colors, which in turn are paler than Level 45 colors. The second and third codes each consist of a letter followed by a single-digit number. The letter identifies one of four hues (R-red, Y-yellow, B-blue, and G-green, these being the four "primary" colors in light), and the number describes the intensity of the hue. Thus, L40 R3 Y2 specifies value Level 40, red hue saturation level of 3, and yellow hue saturation level of 2 (where increasing numbers from 1 to 8 designate increasing saturation levels). […]
Data set [5] in a line: Comparative solubility in skin cream with different solubilization mixtures. The class given is physicochemical. Particulars: summary of Tables V and VI.
Source text: The relative scale used was from 1 = completely nonsoluble, precipitate
formed, to 10 = completely soluble, no precipitate or suspension visible.
In all cases the carotene was mixed with Solvent #1 prior to mixing with
Solvent #2. This mixture was in turn combined with LUBRIDERM skin cream,
In data set [6] the test system is DMBA induced squamous cell carcinoma. Particulars: topical […] solution in mineral oil; cited from earlier work.
The conditions of data set [7]: visual.
Procedure: Creams containing cyclodextrin-complexed β carotene and uncomplexed β carotene were prepared by adding the respective carotene preparation to one or more of several different commercially available creams. The commercial creams used include LUBRIDERM, NOXZEMA, POND'S hand cream, POND'S Cold Cream, and NIVEA moisturizing cream. The amount of complex needed to achieve a β carotene content of 1% by weight was calculated using the measurement of percent loading for the particular complex, and this amount was added to the cream as purchased. Control samples contained 1% uncomplexed β carotene by weight of the cream.
A short description of data set [8]: Aqueous solution of carotenoid with cyclodextrin, visible precipitate. Type of data set: physicochemical.
Procedure: Twenty milligrams of β carotene is mixed with eighty milligrams (abbreviated "mg" hereinafter) of β cyclodextrin. The mixture is then added to 0.5 milliliters (hereinafter abbreviated "ml") of a buffered saline solution, and thoroughly mixed.
A further data set concerns human oral cancer cells. To be noted: in vitro; cited from earlier work.
In a further data set the test system is colon tumors. To be noted: animals; cited from earlier work.
For the next data set, the system named is colon polyps. Particulars: humans; cited from earlier work.
The subject of data set [9] is carcinogen-induced epidermoid carcinomas. To be noted: in vivo; cited from earlier work.

Regarding `CC1=C(/C=C/C(C)=C/C=C/C(C)=C/C=C/C=C(C)/C=C/C=C(C)/C=C/C2=C(C)CCCC2(C)C)C(C)(C)CCC1` [β-carotene], the “texture of composition or cream” value in [1] (final cream) is given as “does not produce undesirable color changes or grainy textures”. In data set [1] (uncomplexed β carotene), the “appearance of skin cream with β carotene (previous attempts)” value was “unpleasant mustard-like appearance”. In data set [2], the “COLOR-AID code, LUBRIDERM” value is given as “RO-P2-1⊕”. In addition, in data set [2] (PONDS hand/skin cream), the “COLOR-AID code, PONDS” value is “O-S1⊕”. Moreover, in the data set on oral carcinoma cell, the “tumor inhibitory effects vs Vitamin A” value was “superior to Vitamin A in its tumor inhibitory effects”. For the same compound, the “% Abs. Loss (at 450 nm)” value in data set [3] turned out to be 42%. In [4], the “COLORCURVE code, A” value was “L50 R3YS; also recorded: L55 R3YS”. Moreover, in data set [5], the “effect of mixing with βCD on solubility in LUBRIDERM skin cream” value is “significantly increases its solubility”. The “number and sizes of tumors” value in data set [6] is “reduced the number and sizes of tumors”. Besides, the color of powder entry in data set [7] was “deep, red to orange-red color”. Besides, in data set [8] (20 mg β carotene with 80 mg β cyclodextrin, 0.5 ml buffered saline into 100 ml distilled water), the “visible precipitate in aqueous solution” value was “clear solution with no visible precipitate”. For the same compound, in data set [8] (lesser amount or no cyclodextrin), the “visible precipitate in aqueous solution” value is “red-brown precipitate”. In addition, in the data set with human oral cancer cells, the “inhibition of human oral cancer cells” value is reported as “inhibit human oral cancer cells in vitro” and the “selective killing of tumor cells over normal cells” value is on record as “preferentially kill tumor cells over normal (non-tumor) cells”.
As for `CC1=C(CC(=O)O)c2cc(F)ccc2/C1=C\c1ccc([S+](C)[O-])cc1` (stereo not drawn) [Sulindac, cis-5-fluoro-2-methyl-1-[p-(methyl-sulfinyl)benzylidene]indene-3-acetic acid], in the data set with colon tumors, the “growth of colon tumors” value was “inhibits growth of colon tumors in animals”. In the data set on colon polyps, the “regression of colon polyps” value was “cause regression of colon polyps in humans”.
As for `Cc1c(C)c2c(c(C)c1O)CCC(C)(CCCC(C)CCCC(C)CCCC(C)C)O2` (stereo not drawn) [Vitamin E (alpha tocopherol), alpha tocopherol], the “inhibition of development of carcinogen-induced epidermoid carcinomas” value in data set [9] was “inhibit the development of carcinogen-induced epidermoid carcinomas, and in some cases to completely prevent their growth”.
